Patent US12129312B2, “Peptide compound, application thereof and composition containing same” (priority 2017, dated 2024)
Numbered stars: 1 amine (or outer) side, 2 acyl side, 3 side chain; on linkers, the order of the positions; unused ones are H or OH. Square brackets hold non-standard residues; d marks the D form. Peptide text beside a SMILES is read from it. * marks the point of attachment. Pro(trans-4-Ph) = O=C(O)[C@@H]1C[C@@H](c2ccccc2)CN1; PEG8 = NCCOCCOCCOCCOCCOCCOCCOCCOCCC(=O)O; X6 = CCCN([C@@H](CC(C)C)C(=O)[*:2])[*:1]; Phe(4-Me) = Cc1ccc(C[C@H](N)C(=O)O)cc1; X5 = O=C([C@H]1c2ccccc2CCN1[*:1])[*:2]; 1Nal = N[C@@H](Cc1cccc2ccccc12)C(=O)O; 2Nal = N[C@@H](Cc1ccc2ccccc2c1)C(=O)O; dNMeY = CN[C@H](Cc1ccc(O)cc1)C(=O)O; Hydrocinnamoyl = O=C(CCc1ccccc1)*; Palmitoyl = CCCCCCCCCCCCCCCC(=O)*; NEtLeu = CCN[C@@H](CC(C)C)C(=O)O; Tic = O=C(O)[C@@H]1Cc2ccccc2CN1; dTic = O=C(O)[C@H]1Cc2ccccc2CN1; NMeL = CN[C@@H](CC(C)C)C(=O)O; NHPhenethyl = c1ccc(CCN*)cc1; NMeS = CN[C@@H](CO)C(=O)O; hSer = N[C@@H](CCO)C(=O)O; Aze = O=C(O)[C@@H]1CCN1; CO = O=C([*:1])[*:2]; βAla = NCCC(=O)O

Each compound was assayed against T1, human Chemokine like receptor 1 (Homo sapiens, UniProt Q99788) (assay: Activation of Tango CMKLR1-bla U2OS cells (beta-lactamase FRET reporter)). Details: determination by the method of Effect Embodiment 1; read-out: EC50.
T1 construct: host or cells: U2OS (Tango CMKLR1-bla U2OS)
T1 sequence (Q99788 1-373): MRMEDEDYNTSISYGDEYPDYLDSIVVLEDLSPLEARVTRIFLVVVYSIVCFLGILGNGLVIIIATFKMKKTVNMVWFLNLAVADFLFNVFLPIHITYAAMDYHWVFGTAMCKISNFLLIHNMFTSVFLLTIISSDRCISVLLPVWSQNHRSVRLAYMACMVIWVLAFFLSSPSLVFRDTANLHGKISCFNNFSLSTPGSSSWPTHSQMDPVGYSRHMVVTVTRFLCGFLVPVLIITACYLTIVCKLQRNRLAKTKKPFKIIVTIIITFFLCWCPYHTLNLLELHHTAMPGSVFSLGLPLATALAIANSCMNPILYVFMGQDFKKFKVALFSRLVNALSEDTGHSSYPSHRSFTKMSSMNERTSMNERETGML
Assay type: cell-based
Summary of the method: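 Agonist mode in Tango CMKLR1-bla U2OS cells, 10000 cells/well seeded overnight, then 10-point 3-fold compound dilutions from 10 mM DMSO stock applied for 4 h at 37 °C, 5% CO2. Beta-lactamase reporter read with CCF4-AM FRET substrate; peptide (D-Tyr)-Phe-Leu-Pro-(D-Ser)-Gln-Phe-(D-Ala)-Tic-Ser served as positive control.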

| Structure (SMILES) | EC50 [nM] |
| --- | --- |
| CC(C)C[C@H](NC(=O)[C@H](Cc1ccccc1)NC(=O)[C@@H](Cc1ccc(O)cc1)NC(=O)NCCc1ccccc1)C(=O)N1CCC[C@H]1C(=O)N[C@H](CO)C(=O)N[C@@H](CCC(N)=O)C(=O)N[C@@H](Cc1ccccc1)C(=O)N[C@H](C)C(=O)N1Cc2ccccc2C[C@H]1C(=O)N[C@@H](CO)C(=O)O [YW-72, Phenethylcarbamoyl-(D-Tyr)-Phe-Leu-Pro-(D-Ser)-Gln-Phe-(D-Ala)-Tic-Ser-OH] ({NHPhenethyl-CO}-[dY]FLP[dS]QF[dA][Tic]S-OH) | 45 |
| CCN(C(=O)[C@H](Cc1ccccc1)NC(=O)[C@@H](Cc1ccc(O)cc1)NC(=O)CCc1ccccc1)[C@@H](CC(C)C)C(=O)N1CCC[C@H]1C(=O)N[C@H](CO)C(=O)N[C@@H](CCC(N)=O)C(=O)N[C@@H](Cc1ccccc1)C(=O)N[C@H](C)C(=O)N1Cc2ccccc2C[C@H]1C(=O)N[C@@H](CO)C(=O)O [YW-185, 3-Phenylpropanoyl-(D-Tyr)-Phe-(NEt-Leu)-Pro-(D-Ser)-Gln-Phe-(D-Ala)-Tic-Ser] (Hydrocinnamoyl-[dY]F[NEtLeu]P[dS]QF[dA][Tic]S-OH) | 5.9 |
| CC(C)C[C@H](NC(=O)[C@H](Cc1ccccc1)NC(=O)[C@H](N)Cc1ccc(O)cc1)C(=O)N1C[C@H](c2ccccc2)C[C@H]1C(=O)N[C@H](CO)C(=O)N[C@@H](CCC(N)=O)C(=O)N[C@@H](Cc1ccccc1)C(=O)N[C@H](C)C(=O)N1Cc2ccccc2C[C@H]1C(=O)N[C@@H](CO)C(=O)O [YW-113, (D-Tyr)-Phe-Leu-Pro(4-Ph)-(D-Ser)-Gln-Phe-(D-Ala)-Tic-Ser-OH] (H-[dY]FL[Pro(trans-4-Ph)][dS]QF[dA][Tic]S-OH) | 8.6 |
| CCCCCCCCCCCCCCCC(=O)NCCOCCOCCOCCOCCOCCOCCOCCOCCC(=O)NCCC(=O)NCCC(=O)N(C)[C@H](Cc1ccc(O)cc1)C(=O)N[C@@H](Cc1ccccc1)C(=O)N(C)[C@@H](CC(C)C)C(=O)N1CCC[C@H]1C(=O)N[C@H](CO)C(=O)N[C@@H](CCC(N)=O)C(=O)N[C@@H](Cc1ccc2ccccc2c1)C(=O)N[C@H](C)C(=O)N1Cc2ccccc2C[C@H]1C(=O)N(C)[C@@H](CO)C(=O)O [YW-179, Palm-PEG8-(beta-Ala)-(beta-Ala)-(D-NMeTyr)-Phe-(NMe-Leu)-Pro-(D-Ser)-Gln-2Nal-(D-Ala)-Tic-(NMe-Ser)] ({Palmitoyl-PEG8-βAla-βAla}-[dNMeY]F[NMeL]P[dS]Q[2Nal][dA][Tic][NMeS]-OH) | 2.1 |
| CN[C@H](Cc1ccc(O)cc1)C(=O)N[C@@H](Cc1ccccc1)C(=O)N[C@@H](CC(C)C)C(=O)N1CCC[C@H]1C(=O)N[C@H](CO)C(=O)N[C@@H](CCC(N)=O)C(=O)N[C@@H](Cc1ccccc1)C(=O)N[C@H](C)C(=O)N1CCc2ccccc2[C@@H]1C(=O)N[C@@H](CO)C(=O)O [YW-154, (D-NMe-Tyr)-Phe-Leu-Pro-(D-Ser)-Gln-Phe-(D-Ala)-D-Ti1c-Ser-OH] (H-[dNMeY]FLP[dS]QF[dA][X5]S-OH) | 34 |
| Cc1ccc(C[C@H](NC(=O)[C@@H](C)NC(=O)[C@H](Cc2ccccc2)NC(=O)[C@H](CCC(N)=O)NC(=O)[C@@H](CO)NC(=O)[C@@H]2CCCN2C(=O)[C@H](CC(C)C)N(C)C(=O)[C@H](Cc2ccccc2)NC(=O)[C@H](N)Cc2ccc(O)cc2)C(=O)N[C@@H](CO)C(=O)O)cc1 [YW-205, (D-Tyr)-Phe-(NMe-Leu)-Pro-(D-Ser)-Gln-Phe-(D-Ala)-Phe(4-Me)-Ser] (H-[dY]F[NMeL]P[dS]QF[dA][Phe(4-Me)]S-OH) | 6.2 |

The next lines start with the values.

| EC50 [nM] | Structure (SMILES) |
| --- | --- |
| 2.6 | CN[C@H](Cc1ccc(O)cc1)C(=O)N[C@@H](Cc1ccccc1)C(=O)N(C)[C@@H](CC(C)C)C(=O)N1CCC[C@H]1C(=O)N[C@H](CO)C(=O)N[C@@H](CCC(N)=O)C(=O)N[C@@H](Cc1cccc2ccccc12)C(=O)N[C@H](C)C(=O)N1Cc2ccccc2C[C@H]1C(=O)N(C)[C@@H](CO)C(=O)O [YW-162, (D-NMe-Tyr)-Phe-(NMe-Leu)-Pro-(D-Ser)-Gln-1Nal-(D-Ala)-Tic-NMeSer-OH] (H-[dNMeY]F[NMeL]P[dS]Q[1Nal][dA][Tic][NMeS]-OH) |
| 8.5 | CC(C)C[C@@H](C(=O)N1CCC[C@H]1C(=O)N[C@H](CO)C(=O)N[C@@H](CCC(N)=O)C(=O)N[C@@H](Cc1ccccc1)C(=O)N[C@H](C)C(=O)N1CCc2ccccc2[C@@H]1C(=O)N[C@@H](CO)C(=O)O)N(C)C(=O)[C@H](Cc1ccccc1)NC(=O)[C@H](N)Cc1ccc(O)cc1 [YW-153, (D-Tyr)-Phe-(NMe-Leu)-Pro-(D-Ser)-Gln-Phe-(D-Ala)-D-Ti1c-Ser-OH] (H-[dY]F[NMeL]P[dS]QF[dA][X5]S-OH) |
| 9.2 | CCN(C(=O)[C@H](Cc1ccccc1)NC(=O)[C@H](N)Cc1ccc(O)cc1)[C@@H](CC(C)C)C(=O)N1CCC[C@H]1C(=O)N[C@H](CO)C(=O)N[C@@H](CCC(N)=O)C(=O)N[C@@H](Cc1ccccc1)C(=O)N[C@H](C)C(=O)N1Cc2ccccc2C[C@H]1C(=O)N[C@@H](CO)C(=O)O [YW-183, (D-Tyr)-Phe-(NEt-Leu)-Pro-(D-Ser)-Gln-Phe-(D-Ala)-Tic-Ser] (H-[dY]F[NEtLeu]P[dS]QF[dA][Tic]S-OH) |
| 16 | CCCN(C(=O)[C@H](Cc1ccccc1)NC(=O)[C@H](N)Cc1ccc(O)cc1)[C@@H](CC(C)C)C(=O)N1CCC[C@H]1C(=O)N[C@H](CO)C(=O)N[C@@H](CCC(N)=O)C(=O)N[C@@H](Cc1ccccc1)C(=O)N[C@H](C)C(=O)N1Cc2ccccc2C[C@H]1C(=O)N[C@@H](CO)C(=O)O [YW-184, (D-Tyr)-Phe-(NPr-Leu)-Pro-(D-Ser)-Gln-Phe-(D-Ala)-Tic-Ser] (H-[dY]F[X6]P[dS]QF[dA][Tic]S-OH) |
| 3 | CC(C)C[C@@H](C(=O)N1CCC[C@H]1C(=O)N[C@H](CO)C(=O)N[C@@H](CCC(N)=O)C(=O)N[C@@H](Cc1ccccc1)C(=O)N[C@H](C)C(=O)N1Cc2ccccc2C[C@H]1C(=O)N[C@@H](CO)C(=O)O)N(C)C(=O)[C@H](Cc1ccccc1)NC(=O)[C@H](N)Cc1ccc(O)cc1 [YW-98, (D-Tyr)-Phe-(NMe-Leu)-Pro-(D-Ser)-Gln-Phe-(D-Ala)-Tic-Ser-OH] (H-[dY]F[NMeL]P[dS]QF[dA][Tic]S-OH) |
| 29 | CC(C)C[C@@H](C(=O)N1CCC[C@H]1C(=O)N[C@H](CO)C(=O)N[C@@H](CCC(N)=O)C(=O)N[C@@H](Cc1ccccc1)C(=O)N[C@H](C)C(=O)N1Cc2ccccc2C[C@H]1C(=O)N[C@@H](CCO)C(=O)O)N(C)C(=O)[C@H](Cc1ccccc1)NC(=O)[C@H](N)Cc1ccc(O)cc1 [YW-171, (D-Tyr)-Phe-(NMe-Leu)-Pro-(D-Ser)-Gln-Phe-(D-Ala)-Tic-HoSer-OH] (H-[dY]F[NMeL]P[dS]QF[dA][Tic][hSer]-OH) |
| 41 | CC(C)C[C@@H](C(=O)N1CCC[C@H]1C(=O)N[C@H](CO)C(=O)N[C@@H](CCC(N)=O)C(=O)N[C@@H](Cc1ccccc1)C(=O)N[C@H](C)C(=O)N1Cc2ccccc2C[C@@H]1C(=O)N(C)[C@@H](CO)C(=O)O)N(C)C(=O)[C@H](Cc1ccccc1)NC(=O)[C@H](N)Cc1ccc(O)cc1 [YW-182, (D-Tyr)-Phe-(NMe-Leu)-Pro-(D-Ser)-Gln-Phe-(D-Ala)-(D-Tic)-(NMe-Ser)] (H-[dY]F[NMeL]P[dS]QF[dA][dTic][NMeS]-OH) |
| 190 | CC(C)C[C@H](NC(=O)[C@H](Cc1ccccc1)NC(=O)[C@H](N)Cc1ccc(O)cc1)C(=O)N1CC[C@H]1C(=O)N[C@H](CO)C(=O)N[C@@H](CCC(N)=O)C(=O)N[C@@H](Cc1ccccc1)C(=O)N[C@H](C)C(=O)N1Cc2ccccc2C[C@H]1C(=O)N[C@@H](CO)C(=O)O [YW-115, (D-Tyr)-Phe-Leu-Aze-(D-Ser)-Gln-Phe-(D-Ala)-Tic-Ser-OH] (H-[dY]FL[Aze][dS]QF[dA][Tic]S-OH) |
